The text below walks through data of patent US7625872B2, “Branched immunomodulatory compounds and methods of using the same” (Dynavax Technologies Corporation, priority 2002, dated 2009).

Series [1] in a line: solubility of spacer moiety measured as dialcohol precursor. The class given is physicochemical. To be noted: dodecyl spacer measured as dialcohol precursor; water solubility. Here is the method:
In addition, a spacer moiety that has low solubility, such as a dodecyl spacer (solubility <5 mg/ml when measured as dialcohol precursor 1,12-dihydroxydodecane) is not preferred because it can reduce the hydrophilicity and activity of the BIC. Preferably, spacer moieties have solubility much greater than 5 mg/ml (e.g., solubility at least about 20 mg/ml, at least about 50 mg/ml or at least about 100 mg/ml), e.g., when measured as dialcohol precursors. The form of the spacer moiety used for testing its water solubility is generally its most closely related unactivated and unprotected spacer precursor molecule.

In series [2] the test system is human PBMC cells. Nature of the series: human PBMC assay: IFN-γ and IFN-α in cell-free medium by ELISA. Format: cell-based. To be noted: 24 hours; for IFN-α (pg/ml) 17240 / IFN-γ (pg/ml) 17240: donor 17240; for IFN-α (pg/ml) 17240 / IFN-γ (pg/ml) 17240 / IFN-α (pg/ml) 17241 / IFN-γ (pg/ml) 17241 / IFN-α (pg/ml) 17242 / IFN-γ (pg/ml) 17242 / IFN-α (pg/ml) 17243 / IFN-γ (pg/ml) 17243 / IFN-α (pg/ml) mean: test samples 20 μg/ml, '+ PLGA' = premixed with 100 μg/ml cPLGA; for IFN-α (pg/ml) 17240 / IFN-γ (pg/ml) 17240 / IFN-α (pg/ml) 17241 / IFN-γ (pg/ml) 17241 / IFN-α (pg/ml) 17242 / IFN-γ (pg/ml) 17242 / IFN-α (pg/ml) 17243 / IFN-γ (pg/ml) 17243: SAC 1/5000 dilution; for IFN-α (pg/ml) 17241 / IFN-γ (pg/ml) 17241: donor 17241; for IFN-α (pg/ml) 17242 / IFN-γ (pg/ml) 17242: donor 17242; for IFN-α (pg/ml) 17243 / IFN-γ (pg/ml) 17243: donor 17243; for IFN-α (pg/ml) mean: mean of 4 donors; for IFN-α +PLGA / IFN-γ +PLGA / IFN-α −PLGA / IFN-γ −PLGA: mean results (Table 4; unit in Table 3); for IFN-α +PLGA / IFN-γ +PLGA: 20 μg/ml formulated with 100 μg/ml cPLGA; for IFN-α −PLGA / IFN-γ −PLGA: compound alone, 20 μg/ml. On the procedure:
Peripheral blood was collected from volunteers by venipuncture using heparinized syringes. Blood was layered onto a FICOLL® (Amersham Pharmacia Biotech) cushion and centrifuged. PBMCs, located at the FICOLL® interface, were collected, then washed twice with cold phosphate buffered saline (PBS). The cells were resuspended and cultured in 48 well plates or 96-well plates at 2×10^6 cells/mL at 37° C. in RPMI 1640 with 10% heat-inactivated human AB serum plus 50 units/mL penicillin, 50 μg/mL streptomycin, 300 μg/mL glutamine, 1 mM sodium pyruvate, and 1×MEM non-essential amino acids (NEAA).
The cells were cultured in the absence of test samples, in the presence of test samples at 20 μg/ml (0.5 OD/ml), or in the presence of test samples at 20 μg/ml premixed with 100 μg/ml cationic poly(lactic acid, glycolic acid) microcarriers (cPLGA; see infra) (when used) for 24 hours. Cell-free medium was then collected from each well and assayed for IFN-γ and IFN-α concentrations. SAC (Pansorbin CalBiochem, 1/5000 dilution) was used as a positive control. SAC is Staph. aureus (cowan) cell material.
IFN-γ and IFN-α were assayed using CYTOSCREEN™ ELISA kits from BioSource International, Inc., according to the manufacturer's instructions.
Compound B07 (see Example 1, above) was tested for immunomodulatory activity in human PBMC cells as outlined in Example 9, above. For comparison purposes, the immunomodulatory activities of a variety of polynucleotides and chimeric molecules containing spacer moieties were also assayed. The syntheses and features of immunomodulatory chimeric molecules like compounds C-101, C-124, and C-125 are described in U.S. patent application Ser. No. 10/176,883 entitled, “Chimeric Immunomodulatory Compounds and Methods of Using the Same,” filed on Jun. 21, 2002, herein incorporated by reference. All nucleotide linkages and linkages between NAMs, spacer moieties and branch-point nucleosides in the listed compounds are phosphorothioate esters. HEG=hexaethylene glycol; symmetrical doubler=1,3-diamino-2-propanol; trebler=modified pentaerythritol; T-C6=2′-deoxyuridine; AHA=aminohexyl-3(E)-acrylamido linked at the C-5 position of 2′-deoxyuridine (see FIG. 1A). The compounds were each tested both alone and formulated with cPLGA (see Example 9, supra).
Background: An ELISA detects its analyte on a solid surface through an enzyme-linked reagent.

With `OCCCCCCCCCCCCO` [1,12-dihydroxydodecane], the solubility (in general, the concentration that dissolves in the medium under given conditions) in series [1] was less than 5000 µg/mL.

On to “(5′-TAGTCAT-HEG)3-trebler-HEG-5′-TAGTCAT-3′ [M-102]”, for which, in series [2], the “IFN-α (pg/ml) 17240” value worked out at 30 pg/mL, the “IFN-γ (pg/ml) 17240” value came to 34 pg/mL, the “IFN-α (pg/ml) 17241” value is 30 pg/mL and the “IFN-γ (pg/ml) 17241” value was found to be 24 pg/mL. In series [2], the “IFN-α (pg/ml) 17242” value was determined as 30 pg/mL, the “IFN-γ (pg/ml) 17242” value is 10 pg/mL, the “IFN-α (pg/ml) 17243” value was 30 pg/mL and the “IFN-γ (pg/ml) 17243” value worked out at 45 pg/mL. Also, in series [2], the “IFN-α (pg/ml) mean” value came out at 30 pg/mL, the “IFN-α +PLGA” value turned out to be 85 pg/mL, the “IFN-γ +PLGA” value was found to be 61 pg/mL and the “IFN-α −PLGA” value was 30 pg/mL. Besides, the “IFN-γ −PLGA” value in series [2] was determined as 28 pg/mL.

Turning to “(5′-TCGACGT3′-HEG)2-(T-C6 brancher)-HEG-5′-TCGACGT-3′ [B07 (#2)]”, in series [2], the “IFN-α (pg/ml) 17240” value is 1046 pg/mL, the “IFN-γ (pg/ml) 17240” value came out at 207 pg/mL, the “IFN-α (pg/ml) 17241” value was found to be 253 pg/mL and the “IFN-γ (pg/ml) 17241” value was 129 pg/mL. For the same molecule, in series [2], the “IFN-α (pg/ml) 17242” value turned out to be 1365 pg/mL, the “IFN-γ (pg/ml) 17242” value is 48 pg/mL, the “IFN-α (pg/ml) 17243” value came to 520 pg/mL and the “IFN-γ (pg/ml) 17243” value came to 158 pg/mL. For the same molecule, in series [2], the “IFN-α (pg/ml) mean” value came to 796 pg/mL, the “IFN-α +PLGA” value is 8998 pg/mL, the “IFN-γ +PLGA” value was 1016 pg/mL and the “IFN-α −PLGA” value is 796 pg/mL. Moreover, the “IFN-γ −PLGA” value in series [2] was 135 pg/mL.

With “(5′-TCGACGT-3′-HEG)2-glycerol-HEG-5′-TCGACGT-3′ [C-101]”, in series [2], the “IFN-α (pg/ml) 17240” value turned out to be 2189 pg/mL, the “IFN-γ (pg/ml) 17240” value was determined as 237 pg/mL, the “IFN-α (pg/ml) 17241” value came out at 520 pg/mL and the “IFN-γ (pg/ml) 17241” value was 147 pg/mL. For the same molecule, in series [2], the “IFN-α (pg/ml) 17242” value came to 1071 pg/mL, the “IFN-γ (pg/ml) 17242” value was 73 pg/mL, the “IFN-α (pg/ml) 17243” value came to 293 pg/mL and the “IFN-γ (pg/ml) 17243” value worked out at 142 pg/mL. Further, in series [2], the “IFN-α +PLGA” value turned out to be 5609 pg/mL, the “IFN-γ +PLGA” value is 1323 pg/mL and the “IFN-γ −PLGA” value amounted to 150 pg/mL.

For “(5′-TCGACGT-3′-HEG)2-symmetrical doubler-HEG-5′-TCGACGT-3′ [C-124]”, in series [2], the “IFN-α (pg/ml) 17240” value worked out at 1048 pg/mL, the “IFN-γ (pg/ml) 17240” value came out at 303 pg/mL, the “IFN-α (pg/ml) 17241” value is 239 pg/mL and the “IFN-γ (pg/ml) 17241” value was 155 pg/mL. Also, in series [2], the “IFN-α (pg/ml) 17242” value was found to be 1186 pg/mL, the “IFN-γ (pg/ml) 17242” value worked out at 65 pg/mL, the “IFN-α (pg/ml) 17243” value came to 249 pg/mL and the “IFN-γ (pg/ml) 17243” value is 142 pg/mL. Moreover, in series [2], the “IFN-α (pg/ml) mean” value was 680 pg/mL, the “IFN-α +PLGA” value was 7017 pg/mL, the “IFN-γ +PLGA” value was determined as 2661 pg/mL and the “IFN-α −PLGA” value is 680 pg/mL. For the same molecule, the “IFN-γ −PLGA” value in series [2] is 166 pg/mL.

In the case of “(5′-TCGACGT-3′-HEG)3-trebler-HEG-5′-TCGACGT-3′ [C-125]”, in series [2], the “IFN-α (pg/ml) 17240” value worked out at 1519 pg/mL, the “IFN-γ (pg/ml) 17240” value was 253 pg/mL, the “IFN-α (pg/ml) 17241” value is 67 pg/mL and the “IFN-γ (pg/ml) 17241” value came out at 136 pg/mL. In addition, in series [2], the “IFN-α (pg/ml) 17242” value was 1284 pg/mL, the “IFN-γ (pg/ml) 17242” value is 85 pg/mL, the “IFN-α (pg/ml) 17243” value came out at 309 pg/mL and the “IFN-γ (pg/ml) 17243” value was found to be 184 pg/mL. In series [2], the “IFN-α (pg/ml) mean” value worked out at 795 pg/mL, the “IFN-α +PLGA” value came to 6348 pg/mL, the “IFN-γ +PLGA” value came to 889 pg/mL and the “IFN-α −PLGA” value amounted to 795 pg/mL. In addition, the “IFN-γ −PLGA” value in series [2] was 165 pg/mL.
